# Legend:
# Assay type in all cases: in vivo
# [1] = system: HFD-induced obese C57BL/6J mice; experiment: Body weight gain, food intake and food efficiency ratio in HFD-induced obese mice; settings: vs HFD group; for food efficiency ratio (FER): 12 weeks; for body weight gain: HFD mice, oral gavage 12 weeks, CX 10 and 30 mg/kg/day, EGCG 30 mg/kg/day
# Source text: (§1) To determine the effect of CX (Sigma, Inc., USA) on obesity and non-alcoholic fatty liver disease (NAFLD) in vivo, we established an experimental approach using HFD-induced obese C57BL/6J mice. CX was suspended in 0.5% methylcellulose solution for oral administration. The animals used in the examples are described below. 5-week-old male C57BL/6J mice were purchased from The National Laboratory Animal Center, Taipei, Taiwan and were maintained in a temperature-controlled room on a 12-h light-dark cycle. They were housed with four per cage and had free access to food and drinking water. Mice fed with a standard diet and adapted to the environment for 1 week were subsequently divided randomly into five groups. The ND group (n=8) continued on the same diet, whereas the other four groups (n=8 per group) were switched to the HFD (494 kcal/100 g, 45% energy as fat; TestDiet Inc., USA). Among the four HFD groups, three groups started to receive CX at 10 mg/kg/day (CX10 group), CX at 30 mg/kg/day (CX30 group), and epigallocatechin gallate (EGCG) (Sigma, Inc., USA) at 30 mg/kg/day (EGCG30 group) by oral gavage. EGCG was suspended in 0.5% methylcellulose solution for oral administration. Food consumption and weight gain were measured daily and weekly, respectively. After 12 weeks, all mice were sacrificed. Serum samples, liver tissue, epididymis adipose tissue and feces were harvested for further analysis. The experimental protocol was approved by the Animal Research Committee of the National Yang Ming Chiao Tung University (IACUC no. 1091013), and all procedures followed The Guide for the Care and Use of Laboratory Animals (NIH publication, 85-23, revised 1996) and the guidelines of the Animal Welfare Act, Taiwan.
# [2] = system: HFD-induced obese C57BL/6J mice; experiment: Liver fat deposition and liver damage markers (NAFLD) in HFD-induced obese mice; settings: for liver weight / ratio of liver weight and body weight / lipid accumulation in the liver tissue (H&E and Oil Red O staining) / hepatic cholesterol (TC) level / hepatic triglyceride (TG) level: HFD mice, 12 weeks oral; for liver weight: CX 10 and 30 mg/kg/day, EGCG 30 mg/kg/day; for ratio of liver weight and body weight: among all groups; for lipid accumulation in the liver tissue (H&E and Oil Red O staining): normal morphology of liver cells maintained; for hepatic cholesterol (TC) level / hepatic triglyceride (TG) level: vs HFD; for serum albumin (ALB) level: compared with ND group, HFD group significantly higher
# Source text: as §1, with “The” for “To determine the effect of CX (Sigma, Inc., USA) on obesity and non-alcoholic fatty liver disease (NAFLD) in vivo, we established an experimental approach using HFD-induced obese C57BL/6J mice. CX was suspended in 0.5% methylcellulose solution for oral administration. The”, “Taiwan. The procedure regarding immunohistochemical tissue characterization is as follows. During dissection of the mice, epididymis adipose tissue and liver were isolated, weighed, and subsequently fixed in 10% paraformaldehyde in PBS. After overnight fixation, tissues were embedded in paraffin for hematoxylin and eosin (H&E) staining. All specimens were observed microscopically (Carl Zeiss Inc., Germany) at 200× magnification. […] The procedure regarding biochemical characterization is as follows. The serum triglyceride (TG), total cholesterol (TC), high-density lipoprotein-cholesterol (HDL-C), glutamic oxaloacetic transaminase (GOT), glutamic pyruvic transaminase (GPT), albumin (ALB), uric acid (UA), and creatinine (CRE) levels were measured using enzymatic assay kits with a FUJI DRI-CHEM analyzer (Fujifilm, Tokyo, Japan). The LDL-C level was calculated as [(TC)-(HDL-C)-(TG/5)]. The procedure regarding triglyceride and cholesterol analysis of liver tissue is as follows. For triglyceride and cholesterol determinations, mouse liver tissues were extracted and analyzed using triglyceride and cholesterol quantitation assay kits (Abcam, UK), respectively, according to the manufacturer's instruction.” for “Taiwan.”
# [3] = system: HFD-induced obese C57BL/6J mice; experiment: Renal function markers in HFD-induced obese mice; settings: for serum CRE level, difference to ND group: 30 mg/kg/day oral, CX30, ND and EGCG groups compared; for serum CRE level, difference to ND group / serum uric acid (UA) level, difference to ND group: 12 weeks; for serum uric acid (UA) level, difference to ND group: CX 10-30 mg/kg/day, EGCG 30 mg/kg/day oral, compared with ND group
# Source text: as §1, with “The” for “To determine the effect of CX (Sigma, Inc., USA) on obesity and non-alcoholic fatty liver disease (NAFLD) in vivo, we established an experimental approach using HFD-induced obese C57BL/6J mice. CX was suspended in 0.5% methylcellulose solution for oral administration. The”, “Taiwan. The procedure regarding biochemical characterization is as follows. The serum triglyceride (TG), total cholesterol (TC), high-density lipoprotein-cholesterol (HDL-C), glutamic oxaloacetic transaminase (GOT), glutamic pyruvic transaminase (GPT), albumin (ALB), uric acid (UA), and creatinine (CRE) levels were measured using enzymatic assay kits with a FUJI DRI-CHEM analyzer (Fujifilm, Tokyo, Japan). The LDL-C level was calculated as [(TC)-(HDL-C)-(TG/5)].” for “Taiwan.”
# [4] = CX at both supplementations (10 and 30 mg/kg/day), 12 weeks
# [5] = CX treatment vs HFD group, 12 weeks oral
structure (smiles),measurement,setting,value
"COc1ccc2[nH]c(=O)oc2c1 [CX, 6-methoxybenzoxazolinone]",food efficiency ratio (FER),[1]; 10 mg/kg/day oral gavage,greatly reduced
same,food efficiency ratio (FER),[1]; 30 mg/kg/day oral gavage,greatly reduced
same,body weight gain,[1],significantly prevented body weight gain
same,serum GOT (HFD-induced high level),[2]; [4],significantly prevented
same,serum GPT (HFD-induced high level),[2]; [4],significantly prevented
same,liver weight,[2],significantly lower than HFD group
same,ratio of liver weight and body weight,[2],did not differ among all groups
same,lipid accumulation in the liver tissue (H&E and Oil Red O staining),[2],greatly ameliorated
same,hepatic cholesterol (TC) level,[2],much lower
same,hepatic triglyceride (TG) level,[2],much lower
same,serum albumin (ALB) level,[2],no difference
same,"serum CRE level, difference to ND group",[3],no significant difference
same,"serum uric acid (UA) level, difference to ND group",[3],no significant difference
same,serum creatinine (CRE) level,[3]; [5],decreased
same,serum uric acid (UA) level,[3]; [5],decreased
"O=C(O[C@@H]1Cc2c(O)cc(O)cc2O[C@@H]1c1cc(O)c(O)c(O)c1)c1cc(O)c(O)c(O)c1 [EGCG, epigallocatechin gallate, reference compound]",body weight gain,[1],significantly prevented body weight gain
same,liver weight,[2],significantly lower than HFD group
same,ratio of liver weight and body weight,[2],did not differ among all groups
same,lipid accumulation in the liver tissue (H&E and Oil Red O staining),[2],greatly ameliorated
same,hepatic cholesterol (TC) level,[2],much lower
same,hepatic triglyceride (TG) level,[2],much lower
same,serum albumin (ALB) level,[2],no difference
same,"serum CRE level, difference to ND group",[3],no significant difference
same,"serum uric acid (UA) level, difference to ND group",[3],no significant difference
